The target of test [1] is T1, Uba6 SCCH domain (Homo sapiens, UniProt A0AVT1).
T1 construct: standalone SCCH domain, residues 615-892, E. coli, SMT3 tag cleaved by ULP1
T1 sequence (A0AVT1 615-892): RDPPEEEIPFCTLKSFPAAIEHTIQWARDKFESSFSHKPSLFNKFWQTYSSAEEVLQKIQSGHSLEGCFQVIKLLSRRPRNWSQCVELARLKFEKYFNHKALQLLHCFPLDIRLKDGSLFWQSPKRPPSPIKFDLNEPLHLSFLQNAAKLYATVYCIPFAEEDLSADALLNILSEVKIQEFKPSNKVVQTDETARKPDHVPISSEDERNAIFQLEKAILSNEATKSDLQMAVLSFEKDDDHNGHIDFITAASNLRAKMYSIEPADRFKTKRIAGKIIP
Put plainly: thermal shift assay (SYPRO Orange). Format: binding. The conditions noted are these: ~43 °C without ligand, 20 mM HEPES pH 7.5, 150 mM NaCl, 0.25 mM TCEP, E. coli-derived.

Test [2] deals with T2, Uba6 (Uba6_Apo; Uba6_WT) (Homo sapiens, UniProt A0AVT1).
T2 construct: residues 37-1052; crystal from insect cells, His tag cleaved by TEV, C625A
T2 sequence (A0AVT1 37-1052): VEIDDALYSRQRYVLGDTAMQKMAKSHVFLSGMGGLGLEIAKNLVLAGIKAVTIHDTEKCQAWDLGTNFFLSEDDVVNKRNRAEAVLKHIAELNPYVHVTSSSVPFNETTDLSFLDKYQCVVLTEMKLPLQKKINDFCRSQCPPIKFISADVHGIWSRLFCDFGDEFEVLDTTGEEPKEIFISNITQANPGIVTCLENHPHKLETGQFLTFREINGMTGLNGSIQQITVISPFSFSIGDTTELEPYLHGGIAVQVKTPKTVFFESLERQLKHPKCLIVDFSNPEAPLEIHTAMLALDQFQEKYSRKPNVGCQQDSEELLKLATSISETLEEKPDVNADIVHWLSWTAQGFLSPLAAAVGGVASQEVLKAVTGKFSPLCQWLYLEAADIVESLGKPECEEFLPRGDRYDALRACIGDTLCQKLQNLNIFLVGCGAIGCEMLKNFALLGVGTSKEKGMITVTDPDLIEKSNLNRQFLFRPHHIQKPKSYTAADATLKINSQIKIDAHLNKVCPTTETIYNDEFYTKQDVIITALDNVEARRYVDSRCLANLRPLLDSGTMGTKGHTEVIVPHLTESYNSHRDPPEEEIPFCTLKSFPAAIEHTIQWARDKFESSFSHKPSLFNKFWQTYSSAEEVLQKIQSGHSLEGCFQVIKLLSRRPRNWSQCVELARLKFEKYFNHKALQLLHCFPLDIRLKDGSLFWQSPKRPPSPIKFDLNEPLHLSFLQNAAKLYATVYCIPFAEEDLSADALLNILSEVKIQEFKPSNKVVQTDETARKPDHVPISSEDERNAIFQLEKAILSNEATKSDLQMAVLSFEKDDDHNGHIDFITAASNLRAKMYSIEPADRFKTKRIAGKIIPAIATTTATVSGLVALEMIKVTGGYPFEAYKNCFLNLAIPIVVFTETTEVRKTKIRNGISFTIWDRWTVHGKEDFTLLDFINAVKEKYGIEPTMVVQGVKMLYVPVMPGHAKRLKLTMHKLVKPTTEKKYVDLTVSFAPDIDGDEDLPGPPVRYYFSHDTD
Put plainly: isothermal titration calorimetry. Format: binding. (In ITC the heat of successive injections is recorded.)

Test [3] addresses T3, Uba1 (Uba1_WT) (Homo sapiens, UniProt P22314).
T3 construct: E. coli-produced Uba1; a Uba1 SCCH domain (625-892) was also made and may be the ITC sample
T3 sequence (P22314 2-1058): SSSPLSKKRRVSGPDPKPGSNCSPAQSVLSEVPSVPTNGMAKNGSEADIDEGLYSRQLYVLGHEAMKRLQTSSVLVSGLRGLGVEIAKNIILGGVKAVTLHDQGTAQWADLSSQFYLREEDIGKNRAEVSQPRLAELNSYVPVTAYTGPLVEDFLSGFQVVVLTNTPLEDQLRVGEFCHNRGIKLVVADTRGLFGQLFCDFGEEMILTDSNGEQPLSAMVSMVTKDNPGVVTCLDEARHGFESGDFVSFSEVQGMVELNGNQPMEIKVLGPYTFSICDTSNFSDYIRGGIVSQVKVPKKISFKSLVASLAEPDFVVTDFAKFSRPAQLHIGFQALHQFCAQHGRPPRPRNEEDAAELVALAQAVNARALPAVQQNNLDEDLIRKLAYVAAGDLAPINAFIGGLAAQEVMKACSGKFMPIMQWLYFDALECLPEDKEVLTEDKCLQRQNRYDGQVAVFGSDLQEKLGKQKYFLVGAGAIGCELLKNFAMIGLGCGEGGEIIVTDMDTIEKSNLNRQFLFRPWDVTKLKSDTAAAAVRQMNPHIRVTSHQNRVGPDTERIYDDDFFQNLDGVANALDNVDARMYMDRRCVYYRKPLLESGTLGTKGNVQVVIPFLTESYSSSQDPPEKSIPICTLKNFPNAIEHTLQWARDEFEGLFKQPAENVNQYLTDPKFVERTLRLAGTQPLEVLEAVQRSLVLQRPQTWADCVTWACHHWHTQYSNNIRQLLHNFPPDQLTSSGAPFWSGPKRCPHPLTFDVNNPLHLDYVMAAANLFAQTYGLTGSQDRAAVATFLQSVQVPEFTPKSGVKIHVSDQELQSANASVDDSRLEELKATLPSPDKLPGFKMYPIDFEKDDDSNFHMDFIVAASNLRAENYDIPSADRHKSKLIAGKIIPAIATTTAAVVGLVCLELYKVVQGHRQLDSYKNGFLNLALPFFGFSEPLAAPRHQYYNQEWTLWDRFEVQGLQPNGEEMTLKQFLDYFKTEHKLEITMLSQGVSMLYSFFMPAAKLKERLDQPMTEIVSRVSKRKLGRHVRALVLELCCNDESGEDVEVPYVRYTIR
Put plainly: gel-based Uba1~Ub thioester formation, […] s. It counts as biochemical. The settings on record: ubiquitin 2.5 μM, 0-50 μM InsP6, 100 nM E1, 500 μM ATP, 5 mM MgCl2, pH 7.4, RT.

The target in test [4] is T2, Uba6 (Uba6_Apo; Uba6_WT). Put plainly: binding test, method not given.

For `O=P(O)(O)O[C@@H]1[C@H](O)[C@H](O)[C@@H](OP(=O)(O)O)[C@H](OP(=O)(O)O)[C@H]1O` [InsP3, D-myo-Inositol 1,4,5-trisphosphate], the melting temperature in test [1] (100 μM InsP3) worked out at 47 °C. This molecule also came in with a Kd in test [2] of 248 nM.
`O=P(O)(O)O[C@@H]1[C@@H](OP(=O)(O)O)[C@H](OP(=O)(O)O)[C@H](O)[C@H](OP(=O)(O)O)[C@H]1OP(=O)(O)O` [InsP5, D-myo-Inositol 1,3,4,5,6-pentakisphosphate]: the melting temperature in test [1] (100 μM InsP5) came out at 54 °C. The molecule further showed a Kd in test [2] of 73 nM.
For `O=P(O)(O)O[C@H]1[C@H](OP(=O)(O)O)[C@@H](OP(=O)(O)O)[C@H](OP(=O)(O)O)[C@@H](OP(=O)(O)O)[C@H]1OP(=O)(O)O` [InsP6], the IC50 entry in test [3] is given as “InsP6 failed to inhibit Uba1 activation of Ub”.
As for `O[C@H]1[C@H](O)[C@@H](O)[C@H](O)[C@@H](O)[C@H]1O` [myo-inositol], the “binding test, method not given” value in test [4] is on record as “myo-inositol (which lacks phosphates) fails to bind with Uba6 with detectable affinity”.

What is called Kd is the constant that tells how readily two partners part at equilibrium. Low values mean higher affinity, high ones lower affinity.

(Values after paper PMC9391358, “Crystal structures reveal catalytic and regulatory mechanisms of the dual-specificity ubiquitin/FAT10 E1 enzyme Uba6” (Nature Communications, 2022).)
